Source: patent publication US20220370416A1, “COMPOUNDS AND METHODS FOR TARGETED DEGRADATION OF KRAS” (Arvinas Operations, Inc., priority 2020, published 2022)

What was measured:
[1] = biological target: T1, HiBit-KRAS^G12C (Homo sapiens, UniProt P01116, G12C); test: HiBit degradation assay in MiaPaCa-2 HiBit-KRas^G12C cells; format: cell-based; details: 24 hours; for Dmax: MIA PaCa-2, MiaPaCa-2 HiBit-KRas^G12C cells
In short: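 DC50 and Dmax come from 4-parameter fits of DMSO-normalized HiBit luminescence after 24 hours' exposure at 37° C to 10 μM–20 nM compound in 0.1% or 0.5% DMSO. Cells: MiaPaCa-2 carrying one endogenously HiBit-tagged KRAS^G12C allele; concentrations causing ≥50% […] viability loss (alamar blue) excluded.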

[2] = biological target: T1, HiBit-KRAS^G12C; test: HiBit degradation assay in SW1573 HiBit-KRas^G12C cells; format: cell-based; design: expressed in transfected cells; host or cells: SW1573 (clone E6), modified pcDNA3.1 vector, TK promoter; details: 24 hours; for Dmax: SW1573, SW1573 HiBit-KRas^G12C
In short: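 HiBit-KRAS G12C degradation was measured after a 24 h compound exposure (titrated 10 μM–20 nM) in engineered SW1573 cells. Lytic HiBit luminescence, expressed relative to DMSO controls, yielded DC50 and Dmax from 4-parameter fits. Concentrations causing ≥50% loss in alamar blue viability were omitted as cytotoxic.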

[3] = 0.1% DMSO, maximum degradation, read-out: KRas^G12C-HiBiT (MiaPaCa; 0.1% DMSO) DMax
[4] = 0.1% DMSO, read-out: KRas^G12C-HiBit (SW1573; 0.1% DMSO) Dmax**
[5] = SW1573 HiBit-KRas^G12C, 0.1% DMSO, read-out: KRas^G12C-HIBit (SW1573; 0.1% DMSO) DC50*
[6] = 0.5% DMSO, maximum degradation, read-out: KRas^G12C-HiBiT (MiaPaCa; 0.5% DMSO) DMax
[7] = read-out: KRas^G12C-HiBiT (MiaPaCa; 0.5% DMSO) IC50, MiaPaCa-2 HiBit-KRas^G12C cells, 0.5% DMSO
[8] = 0.5% DMSO, read-out: KRas^G12C-HiBiT (SW1573; 0.5% DMSO) Dmax**
[9] = read-out: KRas^G12C-HiBiT (SW1573; 0.5% DMSO) IC50***, SW1573 HiBit-KRas^G12C, 0.5% DMSO

T1 sequence (P01116 1-186 isoform P01116-2 G12C limits assumed): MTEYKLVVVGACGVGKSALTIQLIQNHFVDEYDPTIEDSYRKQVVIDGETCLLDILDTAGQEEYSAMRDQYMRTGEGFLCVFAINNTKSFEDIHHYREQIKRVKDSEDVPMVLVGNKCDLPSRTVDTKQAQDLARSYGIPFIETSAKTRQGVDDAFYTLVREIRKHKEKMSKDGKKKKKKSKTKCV

Row | SMILES | Dmax [1, 3] [%] | Dmax [2, 4] [%] | DC50 [2, 5] [nM] | Dmax [1, 6] [%] | DC50 [1, 7] [nM] | Dmax [2, 8] [%] | DC50 [2, 9] [nM] | KRas^G12C-HiBiT (MiaPaCa; 0.5% DMSO) DMax ([1]; MiaPaCa-2 HiBit-KRas^G12C cells, 0.5% DMSO, maximum degradation) | KRas^G12C-HiBiT (SW1573; 0.5% DMSO) Dmax** ([2]; SW1573 HiBit-KRas^G12C, 0.5% DMSO) | DC50 ([1]; read-out: KRas^G12C-HiBiT (MiaPaCa; 0.1% DMSO) IC50, MiaPaCa-2 HiBit-KRas^G12C cells, 0.1% DMSO) [nM]
1 | C=C(F)C(=O)N1CCN(c2nc(O[C@H](C)CN3CCC(COCC(=O)N[C@H](C(=O)N4C[C@H](O)C[C@H]4C(=O)N[C@@H](C)c4ccc(-c5scnc5C)cc4)C(C)(C)C)CC3)nc3c2CCN(c2cc(O)cc4ccccc24)C3)C[C@@H]1CC#N [Compound 24, (2S,4R)-1-[(2S)-2-[2-({1-[(2R)-2-({4-[(3S)-3-(cyanomethyl)-4-(2-fluoroprop-2-enoyl)piperazin-1-yl]-7-(3-hydroxynaphthalen-1-yl)-5H,6H,7H,8H-pyrido[3,4-d]pyrimidin-2-yl}oxy)propyl]piperidin-4-yl}methoxy)acetamido]-3,3-dimethylbutanoyl]-4-hydroxy-N-[(1S)-1-[4-(4-methyl-1,3-thiazol-5-yl)phenyl]ethyl]pyrrolidine-2-carboxamide] | < 35 | < 35 | > 1000 |  |  |  |  |  |  | 
2 | C=C(F)C(=O)N1CCN(c2nc(OCCN3CCC(COc4cc([C@@H](C(=O)N5C[C@H](O)C[C@H]5C(=O)N[C@@H](C)c5ccc(-c6ccnn6C)cc5)C(C)C)on4)CC3)nc3c(F)c(-c4cc(O)cc5ccccc45)c(Cl)cc23)C[C@@H]1CC#N [Compound 158, (2S,4R)-1-[(2S)-2-[3-({1-[2-({6-chloro-4-[(3S)-3-(cyanomethyl)-4-(2-fluoroprop-2-enoyl)piperazin-1-yl]-8-fluoro-7-(3-hydroxynaphthalen-1-yl)quinazolin-2-yl}oxy)ethyl]piperidin-4-yl}methoxy)-1,2-oxazol-5-yl]-3-methylbutanoyl]-4-hydroxy-N-[(1S)-1-[4-(1-methyl-1H-pyrazol-5-yl)phenyl]ethyl]pyrrolidine-2-carboxamide] |  |  |  |  | > 1000 |  | > 1000 |  |  | 
3 | C=CC(=O)N1CCN(c2nc(OCCN3CCC(COc4cc([C@H](C(=O)N5C[C@H](O)C[C@H]5C(=O)N[C@@H](C)c5ccc(-c6scnc6C)cc5)C(C)C)on4)CC3)nc3c(F)c(-c4cc(O)cc5ccccc45)c(Cl)cc23)C[C@@H]1CC#N (atropisomer, axis not shown) [Compound 104, (2S,4R)-1-[(2R)-2-[3-({1-[2-({6-chloro-4-[(3S)-3-(cyanomethyl)-4-(prop-2-enoyl)piperazin-1-yl]-8-fluoro-7-(3-hydroxynaphthalen-1-yl)quinazolin-2-yl}oxy)ethyl]piperidin-4-yl}methoxy)-1,2-oxazol-5-yl]-3-methylbutanoyl]-4-hydroxy-N-[(1S)-1-[4-(4-methyl-1,3-thiazol-5-yl)phenyl]ethyl]pyrrolidine-2-carboxamide] |  |  |  |  | 100 to 1000 |  | 100 to 1000 | C (C ≤ 35) | C (C ≤ 35) | 
4 | C=CC(=O)N1CCN(c2nc(O[C@H](C)CN3CCC(OCCOCCOCCOc4cc(-c5scnc5C)ccc4CNC(=O)[C@@H]4C[C@@H](O)CN4C(=O)[C@H](c4cc(C)no4)C(C)C)CC3)nc3c(F)c(-c4cc(O)cc5ccccc45)c(Cl)cc23)CC1 [Compound 69, (2S,4R)-N-{[2-(2-{2-[2-({1-[(2R)-2-{[6-chloro-8-fluoro-7-(3-hydroxynaphthalen-1-yl)-4-[4-(prop-2-enoyl)piperazin-1-yl]quinazolin-2-yl]oxy}propyl]piperidin-4-yl}oxy)ethoxy]ethoxy}ethoxy)-4-(4-methyl-1,3-thiazol-5-yl)phenyl]methyl}-4-hydroxy-1-[(2S)-3-methyl-2-(3-methyl-1,2-oxazol-5-yl)butanoyl]pyrrolidine-2-carboxamide] |  | 35 to 70 | 100 to 1000 |  |  |  |  |  |  | > 1000

Other lines, results leading:

Row | Dmax [1, 3] [%] | Dmax [2, 4] [%] | DC50 [2, 5] [nM] | Dmax [1, 6] [%] | DC50 [1, 7] [nM] | Dmax [2, 8] [%] | DC50 [2, 9] [nM] | KRas^G12C-HiBiT (MiaPaCa; 0.5% DMSO) DMax ([1]; MiaPaCa-2 HiBit-KRas^G12C cells, 0.5% DMSO, maximum degradation) | KRas^G12C-HiBiT (SW1573; 0.5% DMSO) Dmax** ([2]; SW1573 HiBit-KRas^G12C, 0.5% DMSO) | DC50 ([1]; read-out: KRas^G12C-HiBiT (MiaPaCa; 0.1% DMSO) IC50, MiaPaCa-2 HiBit-KRas^G12C cells, 0.1% DMSO) [nM] | SMILES
5 |  |  |  | 35 to 70 | 100 to 1000 | 35 to 70 | 100 to 1000 |  |  |  | C=CC(=O)N1CCN(c2nc(OCCN3CCC(COCC(=O)N[C@H](C(=O)N4C[C@H](O)C[C@H]4C(=O)N[C@@H](C)c4ccc(-c5scnc5C)cc4)C(C)(C)C)CC3)nc3c(F)c(-c4nc(N)cc5ccccc45)c(Cl)cc23)C[C@@H]1CC#N [Compound 111]
6 |  |  |  | > 70 | > 1000 | > 70 | 100 to 1000 |  |  |  | C=CC(=O)N1CCN(c2nc(OC[C@@H]3CCN(CCCOCC(=O)N[C@H](C(=O)N4C[C@H](O)C[C@H]4C(=O)N[C@@H](C)c4ccc(-c5scnc5C)cc4)C(C)(C)C)C3)nc3c(F)c(-c4cc(O)cc5ccccc45)c(Cl)cc23)C[C@@H]1CC#N [Compound 95, (2S,4R)-1-[(2S)-2-(2-{3-[(3R)-3-[({6-chloro-4-[(3S)-3-(cyanomethyl)-4-(prop-2-enoyl)piperazin-1-yl]-8-fluoro-7-(3-hydroxynaphthalen-1-yl)quinazolin-2-yl}oxy)methyl]pyrrolidin-1-yl]propoxy}acetamido)-3,3-dimethylbutanoyl]-4-hydroxy-N-[(1S)-1-[4-(4-methyl-1,3-thiazol-5-yl)phenyl]ethyl]pyrrolidine-2-carboxamide]
7 | < 35 | 35 to 70 | 100 to 1000 | 35 to 70 |  | 35 to 70 |  |  |  |  | C=CC(=O)N1CCN(c2nc(OCCN3CCC(CCOCC(=O)N[C@H](C(=O)N4C[C@H](O)C[C@H]4C(=O)N[C@@H](C)c4ccc(-c5scnc5C)cc4)C(C)(C)C)CC3)nc3c(F)c(-c4cc(O)cc5ccccc45)c(Cl)cc23)CC1 [Compound 64, (2S,4R)-1-[(2S)-2-(2-{2-[l-(2-{[6-chloro-8-fluoro-7-(3-hydroxynaphthalen-1-yl)-4-[4-(prop-2-enoyl)piperazin-1-yl]quinazolin-2-yl]oxy}ethyl)piperidin-4-yl]ethoxy}acetamido)-3,3-dimethylbutanoyl]-4-hydroxy-N-[(1S)-1-[4-(4-methyl-1,3-thiazol-5-yl)phenyl]ethyl]pyrrolidine-2-carboxamide]
8 |  |  |  | 35 to 70 | > 1000 | 35 to 70 | 100 to 1000 |  |  |  | Cc1ncsc1-c1ccc([C@H](C)NC(=O)[C@@H]2C[C@@H](O)CN2C(=O)[C@@H](NC(=O)COCC2CCN(CCOc3nc(N4CCN(C(=O)/C=C/CN5CCOCC5)[C@@H](CC#N)C4)c4cc(Cl)c(-c5cc(O)cc6ccccc56)c(F)c4n3)CC2)C(C)(C)C)cc1 [Compound 164, (2S,4R)-1-[(2S)-2-[2-({1-[2-({6-chloro-4-[(3S)-3-(cyanomethyl)-4-[(2E)-4-(morpholin-4-yl)but-2-enoyl]piperazin-1-yl]-8-fluoro-7-(3-hydroxynaphthalen-1-yl)quinazolin-2-yl}oxy)ethyl]piperidin-4-yl}methoxy)acetamido]-3,3-dimethylbutanoyl]-4-hydroxy-N-[(1S)-1-[4-(4-methyl-1,3-thiazol-5-yl)phenyl]ethyl]pyrrolidine-2-carboxamide]
9 | < 35 | 35 to 70 | 100 to 1000 |  |  |  |  |  |  |  | C=CC(=O)N1CCN(c2nc(O[C@H](C)CN3CCC(CCC(=O)N[C@H](C(=O)N4C[C@H](O)C[C@H]4C(=O)N[C@@H](C)c4ccc(-c5scnc5C)cc4)C(C)(C)C)CC3)nc3c(F)c(-c4cc(O)cc5ccccc45)c(Cl)cc23)CC1 [Compound 37, (2S,4R)-1-[(2S)-2-(3-{1-[(2R)-2-{[6-chloro-8-fluoro-7-(3-hydroxynaphthalen-1-yl)-4-[4-(prop-2-enoyl)piperazin-1-yl]quinazolin-2-yl]oxy}propyl]piperidin-4-yl}propanamido)-3,3-dimethylbutanoyl]-4-hydroxy-N-[(1S)-1-[4-(4-methyl-1,3-thiazol-5-yl)phenyl]ethyl]pyrrolidine-2-carboxamide]
